One assay deals with T1, human B1R (Homo sapiens, UniProt P46663).
T1 construct: expressed in transfected cells; host or cells: CHO K1 cells (Chinese Hamster Ovary), stably transfected
T1 sequence (P46663 1-353): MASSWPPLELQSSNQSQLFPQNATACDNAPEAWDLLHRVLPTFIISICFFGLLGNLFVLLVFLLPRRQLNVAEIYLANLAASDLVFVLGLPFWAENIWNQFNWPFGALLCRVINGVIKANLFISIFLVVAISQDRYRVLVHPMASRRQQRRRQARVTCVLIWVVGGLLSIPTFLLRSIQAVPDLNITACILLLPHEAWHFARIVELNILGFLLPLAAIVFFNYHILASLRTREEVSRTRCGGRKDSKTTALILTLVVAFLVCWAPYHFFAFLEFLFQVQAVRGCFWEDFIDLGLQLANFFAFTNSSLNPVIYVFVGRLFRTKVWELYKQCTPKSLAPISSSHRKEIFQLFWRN
Kind of assay: Functional assay at bradykinin receptor 1 (B1R): Ca2+ fluorescence (Fluo-4) in FLIPR/Novostar, antagonist mode. To be noted: test substance 10 µM; CHO K1 cells stably transfected with human B1R gene (hB1R-Zellen); agonist Lys-Des-Arg9-Bradykinin at EC80; % inhibition relative to maximal achievable inhibition. The format is cell-based. In outline:
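CHO K1 cells stably expressing human B1R were loaded with Fluo-4 and preincubated 6–20 min with test compound before Lys-Des-Arg9-bradykinin at its EC80. Peak fluorescence (ex 488/em 540 nm) gave % inhibition versus maximal inhibition; IC50 from several concentrations, n=2 or 3.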
As to “2-[3-[[(2,3-Dichlor-phenyl)sulfonyl]-methyl]-[1,2,4]oxadiazol-5-yl]-N-(1,3,3-trimethyl-piperidin-4-yl)-acetamid [CC-114]”, the “% Inhibierung (human B1R) bei 10 µM” value is 61%.

The assay is the same for the next values; noted with them: test substance 10 µM; CHO K1 cells stably transfected with human B1R gene (hB1R-Zellen); agonist Lys-Des-Arg9-Bradykinin at EC80; % inhibition relative to maximal achievable inhibition; read-out: % Inhibierung (human B1R) bei 10 µM.
For `COc1cc(C)c(S(=O)(=O)Cc2noc(C(=O)N(C)C3CCN(c4ccnc(N(C)C)n4)CC3)n2)c(C)c1` [SC-68, N-[1-(2-Dimethylamino-pyrimidin-4-yl)-piperidin-4-yl]-3-[[(4-methoxy-2,6-dimethyl-phenyl)sulfonyl]-methyl]-N-methyl-[1,2,4]oxadiazol-5-carbonsäure amid], the inhibition at 10 µM is 100%.

`COCCN1CCC(NC(=O)Cc2noc(CS(=O)(=O)c3c(C)cc(OC)cc3C)n2)C(C)(C)C1` (centres unmarked) [CC-27, 2-[5-[[(4-Methoxy-2,6-dimethyl-phenyl)sulfonyl]-methyl]-[1,2,4]oxadiazol-3-yl]-N-[1-(2-methoxy-ethyl)-3,3-dimethyl-piperidin-4-yl]-acetamid]: the inhibition at 10 µM turned out to be 100%. The same measure, in the same setting: the result for `COc1cc(C)c(S(=O)(=O)Cc2cc(C)n(CC(=O)NC3CCC(c4ccncc4)CC3(C)C)n2)c(C)c1` (centres unmarked) [CC-127, N-(2,2-Dimethyl-4-pyridin-4-yl-cyclohexyl)-2-[3-[[(4-methoxy-2,6-dimethyl-phenyl)sulfonyl)-methyl]-5-methyl-1 H-pyrazol-1-yl]-acetamid] reads 68%; that for `COc1cc(C)c(S(=O)(=O)Cc2noc(C(=O)NC3CCC(N(C)C)CC3)n2)c(C)c1` (centres unmarked) [CC-04, N-(4-Dimethylamino-cyclohexyl)-3-[[(4-methoxy-2,6-dimethyl-phenyl)sulfonyl]-methyl]-[1,2,4]oxa-diazol-5-carbonsäure amid], 100%; that for `COc1cc(C)c(S(=O)(=O)Cc2nnc(CC(=O)NC3CCC(N4CCCC4)CC3)o2)c(C)c1` (centres unmarked) [CC-40], 100%. On the same count and under the same terms, next, `COc1cc(C)c(S(=O)(=O)Cc2noc(CC(=O)N(C)C3CCN(c4ccncc4)C(=O)C3)n2)c(C)c1` (centres unmarked) [SC-85, 2-[3-[[(4-Methoxy-2,6-dimethyl-phenyl)sulfonyl]-methyl]-[1,2,4]oxadiazol-5-yl]-N-methyl-N-(2-oxo-1-pyridin-4-yl-piperidin-4-yl)-acetamid]: 100%; `COc1cc(C)c(S(=O)(=O)Cc2nnc(CC(=O)N(C3CCC(N(C)C)CC3)C3CC3)o2)c(C)c1` (centres unmarked) [CC-124, N-Cyclopropyl-N-(4-dimethylamino-cyclohexyl)-2-[5-[[(4-methoxy-2,6-dimethyl-phenyl)sulfonyl]-methyl]-[1,3,4]oxadiazol-2-yl]-acetamid]: 100%; `Cc1cc(S(=O)(=O)Cc2noc(C(=O)N3CCN(c4ccncc4)CC3)n2)c(C)cc1Cl` [CC-144, [3-[[(4-Chlor-2,5-dimethyl-phenyl)sulfonyl]-methyl]-[1,2,4]oxadiazol-5-yl]-(4-pyridin-4-yl-piperazin-1-yl)-methanon]: 100%. The same measure, in the same setting: the result for `COc1cc(C)c(S(=O)(=O)Cc2c(C)nn(CC(=O)N3CCC(CN4CCN(C)CC4)C3)c2C)c(C)c1` (centres unmarked) [SC-92, 2-[4-[[(4-Methoxy-2,6-dimethyl-phenyl)sulfonyl]-methyl]-3,5-dimethyl-1H-pyrazol-1-yl]-1-[3-[(4-methyl-piperazin-1-yl)-methyl]-pyrrolidin-1-yl]-ethanon] reads 90%; that for `COc1cc(C)c(S(=O)(=O)Cc2noc(CC(=O)N(C)C3CCN(C4CCC(C)CC4)CC3)n2)c(C)c1` (centres unmarked) [SC-20, 2-[3-[[(4-Methoxy-2,6-dimethyl-phenyl)sulfonyl]-methyl]-[1,2,4]oxadiazol-5-yl]-N-methyl-N-[1-(4-methyl-cyclohexyl)-piperidin-4-yl]-acetamid], 100%. `COc1cc(C)c(S(=O)(=O)Cc2c(C)nn(CC(=O)NC3CCC(NC4CC4)CC3(C)C)c2C)c(C)c1` (centres unmarked) [CC-174, N-[4-(Cyclopropylamino)-2,2-dimethyl-cyclohexyl]-2-[4-([(4-methoxy-2,6-dimethyl-phenyl)sulfonyl]-methyl]-3,5-dimethyl-1 H-pyrazol-1-yl]-acetamid]: the inhibition at 10 µM turned out to be 100%. Same read-out and setting: the result for `Cc1cccc(Cl)c1S(=O)(=O)Cc1noc(C(=O)N2C3CCC2CC(Oc2ccncc2)C3)n1` [CC-150, [3-[[(2-Chlor-6-methyl-phenyl)sulfonyl]-methyl]-[1,2,4]oxadiazol-5-yl]-[(1S,5R)-3-pyridin-4-yloxy-8-azabicyclo[3.2.1]octan-8-yl]-methanon] reads 100%. With `COc1cc(C)c(S(=O)(=O)Cc2cc(C)n(CC(=O)NC3CCN(C)CC3(C)C)n2)c(C)c1` (centres unmarked) [CC-188, 2-[3-[[(4-Methoxy-2,6-dimethyl-phenyl)sulfonyl]-methyl]-5-methyl-1H-pyrazol-1-yl]-N-(1,3,3-trimethyl-piperidin-4-yl)-acetamid], the inhibition at 10 µM was 57%. Still for that read-out and setting: next, `COc1cc(C)c(S(=O)(=O)Cc2noc(C(=O)NC3CCC(N4CCCC4)CC3(C)C)n2)c(C)c1` (centres unmarked) [CC-21, N-(2,2-Dimethyl-4-pyrrolidin-1-yl-cyclohexyl)-3-[[(4-methoxy-2,6-dimethyl-phenyl)sulfonyl]-methyl]-[1,2,4]oxadiazol-5-carbonsäure amid]: 100%.

As for `Cc1cccc(Cl)c1S(=O)(=O)Cc1noc(C(=O)N2CCN(c3ccncc3)CC2)n1` [CC-137, [3-[[(2-Chlor-6-methyl-phenyl)sulfonyl]-methyl]-[1,2,4]oxadiazol-5-yl]-(4-pyridin-4-yl-piperazin-1-yl)-methanon], the inhibition at 10 µM is 99%. On the same count and under the same terms, next, `COc1cc(C)c(S(=O)(=O)Cc2noc(CC(=O)NC3CCN(C4CCOCC4)CC3(C)C)n2)c(C)c1` (centres unmarked) [SC-39, N-(3,3-Dimethyl-1-tetrahydro-pyran-4-yl-piperidin-4-yl)-2-[3-[[(4-methoxy-2,6-dimethyl-phenyl)sulfonyl]-methyl]-[1,2,4]oxadiazol-5-yl]-acetamid]: 100%; `COCCN1CCC(NC(=O)Cc2nc(CS(=O)(=O)c3cccc(Cl)c3Cl)no2)C(C)(C)C1` (centres unmarked) [CC-72, 2-[3-[[(2,3-Dichlor-phenyl)sulfonyl]-methyl]-[1,2,4]oxadiazol-5-yl]-N-[1-(2-methoxy-ethyl)-3,3-di-methyl-piperidin-4-yl]-acetamid]: 60%; `COc1cc(C)c(S(=O)(=O)Cc2noc(CC(=O)N3CCC4(CC3)CCN(c3ccncc3)C4)n2)c(C)c1` [CC-134, 2-[3-[[(4-Methoxy-2,6-dimethyl-phenyl)sulfonyl]-methyl]-[1,2,4]oxadiazol-5-yl]-1-(3-pyridin-4-yl-3,8-diazaspiro[4.5]decan-8-yl)-ethanon]: 100%. Same read-out and setting: next, `COc1cc(C)c(S(=O)(=O)Cc2noc(CC(=O)N(C)CCC3CCN(c4ccncc4)CC3)n2)c(C)c1` [CC-06, 2-[3-[[(4-Methoxy-2,6-dimethyl-phenyl)sulfonyl]-methyl]-[1,2,4]oxadiazol-5-yl]-N-methyl-N-[2-(1-pyridin-4-yl-piperidin-4-yl)-ethyl]-acetamid]: 100%; `COc1cc(C)c(S(=O)(=O)Cc2noc(CC(=O)N3CCN(Cc4ccc(N5CCCC5)nc4)CC3)n2)c(C)c1` [SC-62, 2-[3-[[(4-Methoxy-2,6-dimethyl-phenyl)sulfonyl]-methyl]-[1,2,4]oxadiazol-5-yl]-1-[4-[(6-pyrrolidin-1-yl-pyridin-3-yl)-methyl]-piperazin-1-yl]-ethanon]: 100%. The same measure, in the same setting: next, `COc1cc(C)c(S(=O)(=O)Cc2c(C)nn(CC(=O)NC3CCC(N(C)C)CC3)c2C)c(C)c1` (centres unmarked) [CC-168, N-(4-Dimethylamino-cyclohexyl)-2-[4-[[(4-methoxy-2,6-dimethyl-phenyl)sulfonyl]-methyl]-3,5-dimethyl-1 H-pyrazol-1-yl]-acetamid]: 100%; `COc1cc(C)c(S(=O)(=O)Cc2noc(C(=O)NC3CCN(c4ccncc4)CC3(C)C)n2)c(C)c1` (centres unmarked) [SC-12, N-(3,3-Dimethyl-1-pyridin-4-yl-piperidin-4-yl)-3-[[(4-methoxy-2,6-dimethyl-phenyl)sulfonyl]-methyl]-[1,2,4]oxadiazol-5-carbonsäure amid]: 100%; `COc1cc(C)c(S(=O)(=O)Cc2cn(CC(=O)NC3CCNCC3(C)C)nn2)c(C)c1` (centres unmarked) [CC-176, N-(3,3-Dimethyl-piperidin-4-yl)-2-[4-[[(4-methoxy-2,6-dimethyl-phenyl)sulfonyl]-methyl]-1 H-[1,2,3]triazol-1-yl]-acetamid]: 100%.

For the compound `COc1cc(C)c(S(=O)(=O)Cc2c(C)nn(CC(=O)NC3CCN(C)CC3(C)C)c2C)c(C)c1` (centres unmarked) [CC-184, 2-[4-[[(4-Methoxy-2,6-dimethyl-phenyl)sulfonyl]-methyl]-3,5-dimethyl-1H-pyrazol-1-yl]-N-(1,3,3-trimethyl-piperidin-4-yl)-acetamid], the inhibition at 10 µM came out at 100%. Turning to `COc1cc(C)c(S(=O)(=O)Cc2cn(CC(=O)NC3CCC(N(C)C)CC3)nn2)c(C)c1` (centres unmarked) [CC-169, N-(4-Dimethylamino-cyclohexyl)-2-[4-[[(4-methoxy-2,6-dimethyl-phenyl)sulfonyl]-methyl]-1H-[1,2,3]triazol-1-yl]-acetamid], the inhibition at 10 µM was 100%.

Source of the values: EP2857388A1, “Azoles containing sulfone” (Grünenthal GmbH, priority 2013, dated 2015).
